According to patent US4454123A, “O-xylopyranoside series compounds and methods of use” (Seikagaku Kogyo Co. Ltd., priority 1980, dated 1984):
Entries after “also recorded” stand apart in the source; their conditions may differ. Like-named read-outs stand apart in the source and are kept apart here.

Legend:
[1] = test system: synthesis of chondroitin sulfate in epiphysial cartilages; test: Effect of xyloside compounds on synthesis of [35S]glycosaminoglycan (chondroitin sulfate) in epiphysial cartilage culture (Test Examples 1-3); type: cell-based, chick embryos; details: for activity at 1000 µM: Gallus gallus; for effectiveness as initiator for the synthesis of chondroitin sulfate / total 35S uptake amount of glycosaminoglycan as the concentration of the xyloside compound rose / concentration required compared with O-β-D-xylopyranoside compounds: in words; for total 35S uptake amount of glycosaminoglycan as the concentration of the xyloside compound rose: concentration in culture medium varied
Experimental: (§1) Epiphysial cartilages were taken from chick embryos aged 12 days in the Tyrode's medium under ice-cooling, and excess tissues were removed therefrom. To 150 mg. of cartilages corresponding to five embryos, 5 ml. of BGJb [a completely synthetic culture medium prepared according to a recipe of GIBCO (Grand Island Biological Company)] was added, followed by pre-incubation at a temperature of 37° C. After replacing the culture medium, further 1 ml. of BGJb and 5 μCi Na2^35 SO4 were added, and the culture system was kept at 37° C. for 3 hours. The culture medium was then replaced by 1 ml. of a fresh chase medium containing no radio active isotope. After keeping the culture system at 37° C. for 1 hour, the culture medium was separated from the tissues. To study the effects of the xyloside compound on the synthesis of glycosaminoglycan, the xyloside compound was added in the predetermined concentration to the pre-incubation and incubation media.
(§2) After the incubation, the labeled medium containing Na2^35 SO4 was combined with the chase medium. Pronase-P (trade name) (available from Kaken Kagaku Co., Ltd.) was added thereto in a 0.5 M tris-HCl buffer solution (pH 8.0), and the resulting mixture was digested at 50° C. for 16 hours. The digested reaction mixture was then subjected to gel filtration through a column (1.5×14 cm.) packed with Bio-Gel P-2 (available from Bio-Rad Company) using a 0.2 M ammonium formate solution as an eluate. In this way, the Vo fraction was collected and was then freeze-dried to give a crude glycosaminoglycan.
(§3) On the other hand, ice-cold 4 M guanidine hydrochloride was added to the tissues which were previously separated from the culture medium. The resulting mixture was left to stand overnight at a temperature of -20° C., and then homogenized. The obtained homogenate was left to stand overnight at room temperature and centrifuged at a speed of 8,500 rpm to obtain a supernatant. To the obtained liquid, water was added in an amount threefold that of the supernatant. Then, a 95% ethyl alcohol (containing 1.3% of potassium acetate) was added to the resulting mixture in an amount threefold that of the mixture to obtain a precipitate. This procedure was repeated twice, and the combined precipitates were dried in a desiccator. The obtained precipitates were dissolved in a 0.02 M tris-HCl buffer solution (pH 8.0) and digested with Pronase-P in the manner similar to the culture medium described above, thereby obtaining a crude glycosaminoglycan.
As the xyloside compound, conventional O-paranitrophenyl-β-D-xylopyranoside, and two compounds according to the present invention viz. C-n-butyl-β-D-xylopyranoside and C-ethyl-β-D-xylopyranoside were used. The effects of these xyloside compounds on the total amount of [^35 S] glycosaminoglycan synthesized (^35 S uptake amount), the amount thereof liberated to the culture medium and the amount thereof remaining in the tissues were as shown in FIGS. 1 to 3.
In each Figure, the vertical axis denotes the amount of [^35 S]chondroitin sulfate (^35 S cpm×10^-4 /μmol.uronic acid) and the horizontal axis denotes the concentration (mM) of each xylopyranoside compound in the culture medium.
(§4) According to the same procedure as in Test example 1, a crude glycosaminoglycan was obtained.
As the xyloside compound, conventional O-paranitrophenyl β-D-xylopyranoside and N-para(sodiumoxycarbonyl)phenyl-D-xylopyranosylamine, and three compounds according to the present invention viz. para(sodiumoxycarbonyl)phenyl β-D-xylopyranoside, C-para(sodiumoxycarbonyl)benzyl-β-D-xylopyranoside and para(sodiumoxycarbonyl)phenyl 1-thio-β-D-xylopyranoside were used. The effects of these xyloside compounds on the total amount of [^35 S]glycosaminoglycan synthesized (^35 S uptake amount) were shown in FIGS. 3 to 7. […]

[2] = test system: synthesis of [35S]glycosaminoglycan in epiphysial cartilages; test: Recovery in the rate of 35S uptake in cartilage in which glycosaminoglycan synthesis was inhibited by cycloheximide (Test Examples 4, 5); type: cell-based, chick embryos; details: for effectiveness as initiator for the synthesis of chondroitin sulfate: 1.0 mM solution in DMSO, in words; for Rate of 35S uptake: cycloheximide 0.3 mM; for 35S uptake as compared with the case where no xylopyranoside was added: 0.02 mM solution in DMSO
Experimental: as §1, §2, §3, §4
As the xyloside compound, publicly-known methyl 1-thio-β-D-xylopyranoside and n-butyl 1-thio-β-D-xylopyranoside,and six compounds according to the present invention viz. n-heptyl 1-thio-β-D-xylopyranoside, n-nonyl 1-thio-β-D-xylopyranoside, n-decyl 1-thio-β-D-xylopyranoside, n-undecyl […], n-lauryl 1-thio-β-D-xylopyranoside and n-cetyl 1-thio-β-D-xylopyranoside were used. The effects of these compounds on the total amount of [^35 S]glycosaminoglycan synthesized (^35 S uptake amount) were investigated.
That is, after the effect of the addition of DMSO (dimethyl sulfoxide) which is a solvent was investigated, […], thereby inhibiting the synthesis of [^35 S]glycosaminoglycan by around up to 95%. Subsequently, to the medium in which the synthesis of glycosaminoglycan had been inhibited, there was added each solution of the xyloside compound in DMSO having various concentrations to investigate the recovery in the rate of the ^35 S uptake (the relative value expressed by percentage ^35 S uptake relative to the amount of uptake in a control medium to which no xylpyranoside compound was added).
According to the same procedure as in Example 1, a crude glycosaminoglycan was obtained. […]

[3] = Acute toxicity (LD50) by oral or intraperitoneal administration to ddY mice (Test Example 6); type: in vivo; details: mouse, in vivo, 7 days
Experimental: The acute toxicity of the compound according to this invention was determined by forced oral or intraperitoneal administration thereof to ddY mice.
To prepare each specimen to be administered, a predetermined amount of each compound shown in Table 5 was dissolved in a physiological saline or suspended in a 0.2% solution of carboxymethylcellulose in a physiological saline. Each specimen was administered orally to a ddY mouse via its stomach tube or injected intraperitoneally.

Sarcoma-180 = test: Activity against a transplantable cancer, Sarcoma-180 (Test Example 7); type: in vivo, ICR-JCL mice; details: Mus musculus, Sarcoma-180, ip, 240 h, 100 mg/kg ip once a day for 10 days; read-out: I.R. (inhibition ratio, Sarcoma-180 tumor weight)
Experimental: Sarcoma-180 cells (1×10^6 cells) were inoculated subcutaneously into the back skin of each of ICR-JCL mice.
Chemotherapy was given intraperitoneally 24 hrs. after inoculation and performed once a day for 10 days. Each specimen to be administered was prepared by dissolving or suspending 30 mg of each compound according to this invention in 1 ml of a physiological saline or in 1 ml of a 0.2% solution of carboxymethylcellulose in a physiological saline, respectively.
All the solutions and the suspensions thus prepared were injected at a volume of 0.1 ml as a single dose (100 mg/Kg).
The inhibition ratio (%) was calculated according to the following equation: […]
wherein T represents the mean weight of the tumor Sarcoma-180 in a tested group of mice; and C represents the mean weight of the tumor in a control group of mice.

[4] = ip, intraperitoneal, read-out: LD50 (ip)

SMILES: O=[N+]([O-])c1ccc(O[C@@H]2OC[C@@H](O)[C@H](O)[C@H]2O)cc1 [O-paranitrophenyl-β-D-xylopyranoside]
- activity at 1000 µM ([1]; at 1 mM, read-out: [35S]glycosaminoglycan liberated to the culture medium): 95%
- activity at 1000 µM ([1]; at 1 mM, read-out: [35S]glycosaminoglycan remaining in the tissues): 11%
- 35S uptake of glycosaminoglycan ([1]; at 1 mM): 40800 cpm
- 35S uptake of glycosaminoglycan relative to control ([1]; at 1 mM): 2.35 times that of the control
- [35S]glycosaminoglycan remaining in the tissues ([1]; at 1 mM): 11 % of the control
- effectiveness as initiator for the synthesis of chondroitin sulfate [1]: extremely effective as an initiator for the synthesis of chondroitin sulfate; also recorded: extremely effective as the initiator for the synthesis of condroitin sulfate
- total 35S uptake amount of glycosaminoglycan as the concentration of the xyloside compound rose [1]: increased

SMILES: CCCCCCC[C@@H]1OC[C@@H](O)[C@H](O)[C@H]1O [C-n-Heptyl-β-D-xylopyranoside]
- effectiveness as initiator for the synthesis of chondroitin sulfate [2]: extremely effective initiators for the synthesis of chondroitin sulfate
- Rate of 35S uptake ([2]; xyloside 0.2 mM, DMSO 0.1%): 114.0%
- Rate of 35S uptake ([2]; xyloside 0.5 mM, DMSO 0.1%): 183.0%
- Rate of 35S uptake ([2]; xyloside 1.0 mM, DMSO 0.1%): 193.0%
- LD50 at 168 h [3, 4]: 1040 mg/kg
- LD50 at 168 h ([3]; po, read-out: LD50 (po)): 4200 mg/kg
- inhibition in vivo at 100 mg/kg (Sarcoma-180): 54.8%

SMILES: CCCCCC[C@@H]1OC[C@@H](O)[C@H](O)[C@H]1O [C-n-hexyl-β-D-xylopyranoside, C-n-Hexyl-β-D-xylopyranoside]
- effectiveness as initiator for the synthesis of chondroitin sulfate [2]: extremely effective initiators for the synthesis of chondroitin sulfate
- Rate of 35S uptake ([2]; xyloside 0.2 mM, DMSO 0.1%): 82.0%
- Rate of 35S uptake ([2]; xyloside 0.5 mM, DMSO 0.1%): 148.0%
- Rate of 35S uptake ([2]; xyloside 1.0 mM, DMSO 0.1%): 196.0%

SMILES: C[C@@H]1C[C@@H]([C@H](O)CC2CC(=O)NC(=O)C2)C(=O)[C@@H](C)C1 [cycloheximide, reference compound]
- inhibition at 30 µM ([2]; Gallus gallus, read-out: inhibition of the synthesis of [35S]glycosaminoglycan): ~95%
- Rate of 35S uptake ([2]; no xyloside, DMSO 0%, relative to control medium): 5.5%
- Rate of 35S uptake ([2]; no xyloside, DMSO 0.1%, relative to control medium): 4.9%
- Rate of 35S uptake ([2]; no xyloside, DMSO 0.2%, relative to control medium): 6.1%
- Rate of 35S uptake ([2]; no xyloside, DMSO 0.5%, relative to control medium): 6.1%
- Rate of 35S uptake ([2]; no xyloside, DMSO 1.0%, relative to control medium): 5.8%

SMILES: CC(C)S[C@@H]1OC[C@@H](O)[C@H](O)[C@H]1O [Isopropyl 1-thio-β-D-xylopyranoside]
- LD50 at 168 h [3, 4]: 2200 mg/kg
- LD50 at 168 h ([3]; po, read-out: LD50 (po)): 6700 mg/kg
- inhibition in vivo at 100 mg/kg (Sarcoma-180): 30.4%

SMILES: O=C(O)c1ccc(C[C@@H]2OC[C@@H](O)[C@H](O)[C@H]2O)cc1 [C-Para(lithiumoxycarbonyl)benzyl-β-D-xylopyranoside]
- LD50 at 168 h [3, 4]: 2500 mg/kg
- LD50 at 168 h ([3]; po, read-out: LD50 (po)): 8600 mg/kg
- inhibition in vivo at 100 mg/kg (Sarcoma-180): 44.7%

SMILES: CCCCCCCS[C@@H]1OC[C@@H](O)[C@H](O)[C@H]1O [n-heptyl 1-thio-β-D-xylopyranoside, n-Heptyl 1-thio-β-D-xylopyranoside]
- 35S uptake as compared with the case where no xylopyranoside was added [2]: around twice

SMILES: O=C(O)c1ccc(O[C@@H]2OC[C@@H](O)[C@H](O)[C@H]2O)cc1 [Para(potassiumoxycarbonyl)phenyl-β-D-xylopyranoside]
- LD50 at 168 h [3, 4]: 3020 mg/kg
- LD50 at 168 h ([3]; po, read-out: LD50 (po)): 9800 mg/kg
- inhibition in vivo at 100 mg/kg (Sarcoma-180): 44.8%

SMILES: NC(=O)c1ccc(NC2OC[C@@H](O)[C@H](O)[C@H]2O)cc1 (stereo partly drawn) [N-carbamoylphenyl-D-xylopyranosylamine, N-Paracarbamoylphenyl-D-xylopyranosylamine]
- concentration required compared with O-β-D-xylopyranoside compounds [1]: requires higher concentration as compared with the O-β-D-xylopyranoside compounds
- effectiveness as initiator for the synthesis of chondroitin sulfate [1]: good initiator for the synthesis of chondroitin sulfate
- total 35S uptake amount of glycosaminoglycan as the concentration of the xyloside compound rose [1]: increased as the concentration of the xyloside compound rose

SMILES: O[C@@H]1[C@@H](O)[C@H](Cc2ccccc2)OC[C@H]1O [C-Benzyl-1-β-D-xylopyranoside, C-Benzyl-β-D-xylopyranoside]
- LD50 at 168 h [3, 4]: 2400 mg/kg
- LD50 at 168 h ([3]; po, read-out: LD50 (po)): 7200 mg/kg
- inhibition in vivo at 100 mg/kg (Sarcoma-180): 30.9%

SMILES: O=C(O)c1ccc(S[C@@H]2OC[C@@H](O)[C@H](O)[C@H]2O)cc1 [Para(lithiumoxycarbonyl)phenyl 1-thio-β-D-xylopyranoside]
- LD50 at 168 h [3, 4]: 2700 mg/kg
- LD50 at 168 h ([3]; po, read-out: LD50 (po)): 7800 mg/kg
- inhibition in vivo at 100 mg/kg (Sarcoma-180): 47.2%

SMILES: CC(C)CCS[C@@H]1OC[C@@H](O)[C@H](O)[C@H]1O [Isoamyl 1-thio-β-D-xylopyranoside]
- LD50 at 168 h [3, 4]: 1850 mg/kg
- LD50 at 168 h ([3]; po, read-out: LD50 (po)): 5800 mg/kg
- inhibition in vivo at 100 mg/kg (Sarcoma-180): 35.6%

SMILES: O=C(O)c1ccc(NC2OC[C@@H](O)[C@H](O)[C@H]2O)cc1 (stereo partly drawn) [N-para(sodiumoxycarbonyl)phenyl-D-xylopyranosylamine]
- concentration required compared with O-β-D-xylopyranoside compounds [1]: requires higher concentrations as compared with O-paranitrophenyl-β-D-xylopyranoside
- total 35S uptake amount of glycosaminoglycan as the concentration of the xyloside compound rose [1]: shows a similar tendency; also recorded: does not change remarkably within the range of the concentration of 0 to 20 mM of the compound and that the increase in the total uptake amount thereafter is mild

SMILES: CCCCCCCCS[C@@H]1OC[C@@H](O)[C@H](O)[C@H]1O [n-octyl 1-β-D-xylopyranoside, n-Octyl 1-thio-β-D-xylopyranoside]
- 35S uptake as compared with the case where no xylopyranoside was added [2]: around twice
